Entries after “also recorded” stand apart in the source; their conditions may differ.
How the values were obtained:
PFKFB3 bisphosphatase = biological target: T1, PFKFB3 bisphosphatase (Homo sapiens, UniProt Q16875); experiment: PFKFB3 bisphosphatase activity by LC-MS/MS quantitation of F6P; assay type: biochemical; settings: for Effect on bisphosphatase activity / substrate conversion rate vs enzyme alone: Dunnett's multiple comparisons test (two-way ANOVA); for h, Hill coefficient (PFKFB3 in presence of compound) / Vmax (Hill equation, PFKFB3 in presence of compound): Hill fit of bisphosphatase kinetics; for h, Hill coefficient (PFKFB3 in presence of compound): enzyme alone 2.03; for Vmax (Hill equation, PFKFB3 in presence of compound): maximum velocity at enzyme saturation, enzyme alone 0.16; for Enzyme velocity: enzyme 100 nM, compound at 50 µM or equal to its KD, 18 h at 37 °C, Tris buffer pH 8, LC-MS/MS of F6P; for Khalf (Hill equation, PFKFB3 in presence of compound): substrate concentration giving half of maximum velocity, enzyme alone 21.51, in µM (unit assumed)
T1 construct: His tag (N, cleaved yes); made in house; host or cells: Escherichia coli BL21 (DE3) Plys
T1 sequence (Q16875 whole entry): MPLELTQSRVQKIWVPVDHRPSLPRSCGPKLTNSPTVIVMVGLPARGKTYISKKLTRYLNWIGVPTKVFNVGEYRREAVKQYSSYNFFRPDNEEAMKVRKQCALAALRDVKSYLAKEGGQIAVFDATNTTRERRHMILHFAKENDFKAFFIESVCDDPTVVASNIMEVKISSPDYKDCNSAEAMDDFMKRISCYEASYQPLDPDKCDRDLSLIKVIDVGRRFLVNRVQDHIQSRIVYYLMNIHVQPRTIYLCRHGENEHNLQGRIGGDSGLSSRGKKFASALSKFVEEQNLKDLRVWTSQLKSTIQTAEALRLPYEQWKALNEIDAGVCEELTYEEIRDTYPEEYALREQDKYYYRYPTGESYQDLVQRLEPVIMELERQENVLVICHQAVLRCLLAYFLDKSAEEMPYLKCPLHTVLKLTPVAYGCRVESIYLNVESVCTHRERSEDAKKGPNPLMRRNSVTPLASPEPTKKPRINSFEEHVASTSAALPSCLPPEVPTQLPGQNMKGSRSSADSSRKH
Method: HPLC grade water (18 MΩ) was prepared with a Milli-Q purification system (Millipore, Milan, IT). Ammonium formate, fructose-6-phosphate (F6P), Tris HCl, glycerol, 2-mercaptoethanol, sodium phosphate and Amicon-ultra centrifugal filters (30 kDa) were purchased from Sigma Aldrich. F2,6BP was kindly provided by Prof. Lisardo Boscá from Spanish National Research Council in Madrid, Spain. Compound AZ 33 was provided by Carlo DeDominicis, University of Aberdeen. Phosphatase activity of PFKFB3 was measured by quantitation of the reaction product (i.e. F6P) by means of liquid chromatography tandem mass spectrometry. Enzyme reaction rate was determined after 18 h of incubation at 37 °C in sterile (0.22 µm filtered) Tris buffer (20 mM Tris-HCl pH 8; 10 mM sodium phosphate; 5 mM 2-mercaptoethanol and 5% of glycerol) at a final enzyme concentration of 100 nM. Both the enzyme and the substrate (i.e. fructose-2,6-bisphosphate, F2,6BP) were pre-warmed at 37 °C for five min before starting the kinetics by spiking the substrate into the enzyme solution. To plot the enzyme kinetics, the reaction rate was measured in independent experiments at different concentration of substrate (i.e. 5, 10, 15, 20, 25, 30, 40 and 50 µM). Diafiltration on amicon-ultra filters (30 kDa MWCO) was used to stop the reactions. Both the residual substrate and the product were collected in the filtrate, while the enzyme was retained by the filter. The same protocol was used to measure the effect of ligands on enzyme phosphatase activity. For such a purpose the reaction rate was measured at the same substrate concentrations, but the enzyme was incubated with the compound and pre-warmed before starting the kinetics. Compounds were incubated with the enzyme at a concentration 50 µM or equal to their KD, if available. Independent analyses were done without the enzyme (i.e. controls) to assess any degradation of the substrate in the same experimental condition used for the enzyme kinetics. The concentration of the […] produced by the kinetics was determined by interpolation with a calibration curve obtained by the analysis of fructose-6-phosphate standards prepared in a concentration range between 0.5 µM and 50 µM. The velocity was calculated as nanomoles of F6P produced in one min by a nanomole of PFKFB3, subtracting the nanomoles of F6P produced by self-degradation of the substrate from the nanomoles of F6P produced by the enzyme kinetic.
Quantitation of F6P produced was provided by a Surveyor HPLC system connected to a TSQ Quantum Ultra triple quadrupole mass spectrometer by a Finnigan IonMax electrospray ionization (ESI) source assembled with a high flow stainless steel emitter (Thermo Scientific, Rodano, MI, Italy). Filtrate containing the kinetics products were diluted 1:4 in water and placed into the autosampler rack, which was cooled at 8 °C to prevent sample degradation during analyses. […] Table 1 reports the mobile phases and gradient program used for the elution.
The flow from the column was directly sprayed into the mass spectrometer with no further splitting. Nebulization and ionization were achieved by 70 units of sheath gas, 25 units of auxiliary gas, a capillary temperature of 270 °C and a spray voltage of −4.5 kV. The analyzer was set to scan the negative ions reported in Table 2 in Multiple Reaction Monitoring mode (MRM), with a scan time of 0.05 seconds and a resolution of 0.5 m/z for both the first and the third quadrupoles. The MRM transitions reported in Table 2 were previously optimized in a semi-automatic mode to achieve the best instrumental response and selectivity for fructose-6-phosphate, by flow injection of a standard solution.
In order to determine the effect of the PFKFB3-binding compounds on the bisphosphatase activity, a LC-MS/MS analytical method was developed. Firstly, separate kinetics were measured for the enzyme alone or equilibrated with compounds 4–8. […]

[1] = biological target: T2, RED-NHS labeled recombinant PFKFB3 (Homo sapiens, UniProt Q16875); experiment: Microscale thermophoresis (MST) binding assay; settings: for Binding Affinity: 100 nM RED-NHS labeled PFKFB3, 20 min at room temperature, Table 3; for KD: Table S3, list of synthesized peptides from VS
T2 construct: His tag (N, cleaved yes); made in house; host or cells: Escherichia coli BL21 (DE3) Plys
T2 sequence (Q16875 whole entry): as above
Method: The PFKFB3 plasmid was provided by Prof. Yong-Hwan Lee from Louisiana State University. The His-tagged human inducible bifunctional enzyme (GenBank code: AF056320.1) was expressed in Escherichia coli BL21 (DE3) Plys as reported previously. The PFKFB3 protein was purified using nickel affinity columns and the N-terminal His tag was removed using a standard protocol. After the treatment with thrombin the protein was eluted with an anion-exchange column. The pure protein was concentrated to 2–10 mg/mL and stored in 20 mM Tris HCl pH 8.0, 10 mM NaPi, 5 mM β-mercaptoethanol and 5% glycerol.
The dissociation constant was determined using Nanotemper microscale thermophoresis (MST)[38]. In a typical experiment, a compound was dissolved in MST buffer and mixed with 100 nM RED-NHS labeled recombinant PFKFB3 in 1:1 ratio. The mixture was incubated at room temperature for 20 min. and a full MST measurement was performed. Data were analyzed with Nanotemper software (https://nanotempertech.com/monolith/).

[2] = substrate F2,6BP 20 µM, asterisks = significance vs enzyme alone (two-way ANOVA, Dunnett)
[3] = substrate F2,6BP 25 µM, asterisks = significance vs enzyme alone
[4] = substrate F2,6BP 30 µM, asterisks = significance vs enzyme alone
[5] = substrate F2,6BP 40 µM, asterisks = significance vs enzyme alone
[6] = substrate F2,6BP 50 µM, asterisks = significance vs enzyme alone

Effect on bisphosphatase activity / substrate conversion rate vs enzyme alone (PFKFB3 bisphosphatase)	h, Hill coefficient (PFKFB3 in presence of compound) (PFKFB3 bisphosphatase)	Vmax (Hill equation, PFKFB3 in presence of compound) (PFKFB3 bisphosphatase)	Khalf (Hill equation, PFKFB3 in presence of compound) (PFKFB3 bisphosphatase)	KD [1]	Compound	Enzyme velocity (PFKFB3 bisphosphatase; [2])	Enzyme velocity (PFKFB3 bisphosphatase; [3])	Enzyme velocity (PFKFB3 bisphosphatase; [4])	Enzyme velocity (PFKFB3 bisphosphatase; [5])	Enzyme velocity (PFKFB3 bisphosphatase; [6])	Binding Affinity [1]
no significant variations	1.95	0.19	28.12	No binding	SFLLRN-CONH2 [Compound 7]	0.07 ± 0.01 nmol/min of F6P per nmol of enzyme	0.07 ± 0.04 nmol/min of F6P per nmol of enzyme	0.11 ± 0.04 nmol/min of F6P per nmol of enzyme	0.14 ± 0.01 nmol/min of F6P per nmol of enzyme	0.14 ± 0.01 nmol/min of F6P per nmol of enzyme	not able to bind the enzyme; also recorded: No evidence of binding
no significant variations	2.24	0.21	32.83	No binding	Trp-Gly-Tyr [Compound 8]	0.06 ± 0.03 nmol/min of F6P per nmol of enzyme	0.05 ± 0.00 nmol/min of F6P per nmol of enzyme	0.10 ± 0.01 nmol/min of F6P per nmol of enzyme	0.14 ± 0.05 nmol/min of F6P per nmol of enzyme	0.14 ± 0.04 nmol/min of F6P per nmol of enzyme	not able to bind the enzyme; also recorded: No evidence of binding

Compound	Effect on bisphosphatase activity / substrate conversion rate vs enzyme alone (PFKFB3 bisphosphatase)	h, Hill coefficient (PFKFB3 in presence of compound) (PFKFB3 bisphosphatase)	Vmax (Hill equation, PFKFB3 in presence of compound) (PFKFB3 bisphosphatase)	Khalf (Hill equation, PFKFB3 in presence of compound) (PFKFB3 bisphosphatase)	KD [1]	Enzyme velocity (PFKFB3 bisphosphatase; [2])	Enzyme velocity (PFKFB3 bisphosphatase; [3])	Enzyme velocity (PFKFB3 bisphosphatase; [4])	Enzyme velocity (PFKFB3 bisphosphatase; [5])	Enzyme velocity (PFKFB3 bisphosphatase; [6])	Binding Affinity [1]
CC(C)C[C@H](NC(=O)[C@H](Cc1ccccc1)NC(=O)CNC(=O)[C@H](CO)NC(=O)[C@@H](N)Cc1ccc(O)cc1)C(=O)N[C@H](C(=O)O)[C@@H](C)O [Compound 4]	no significant variations	2.39	0.18	26.54	–	0.05 ± 0.03 nmol/min of F6P per nmol of enzyme	0.07 ± 0.04 nmol/min of F6P per nmol of enzyme	0.12 ± 0.03 nmol/min of F6P per nmol of enzyme	0.13 ± 0.04 nmol/min of F6P per nmol of enzyme	0.14 ± 0.01 nmol/min of F6P per nmol of enzyme	–
